Data taken from PMC11207005 (Pharmaceuticals, 2024).

Assays:
[1] = Phase solubility study: solubility of pure ALB in distilled water; format: physicochemical; settings: thermodynamic from solid, 25 °C
Method: (§1) Phase solubility tests were conducted in distilled water following the procedure outlined in the Higuchi and Connors technique. […] Samples were placed in the water bath (25 °C/2 days/50 rpm) to attain equilibrium. Samples of 3 mL were withdrawn and filtered through a 0.45 μm nylon membrane filter. The filtrate (1 mL) was diluted appropriately with methanol, stirred for one hour (200 rpm), and assayed at 340 nm. The concentrations used were 2, 4, 10, 15, and 20 mmol/L for both βCD and HPβCD.

[2] = Phase solubility study of ALB with βCD (stability constant); format: physicochemical; settings: distilled water, 25 °C
Method: as §1

[3] = Phase solubility study of ALB with HPβCD (stability constant); format: physicochemical; settings: distilled water, 25 °C
Method: as §1

[4] = Dissolution test, USP apparatus type II; format: physicochemical; settings: pH 6.8 phosphate buffer, 37 °C, 100 rpm, powder
Method: In the following circumstances, the dissolution test was carried out on the prepared ALB capsules and the complex-containing ones. The dissolution medium was a USP type II (paddle type) and 900 mL of pH 6.8 phosphate buffer at 37 ± 1 °C with the rotation speed fixed at […]. At selected time points (10, 20, …, 80), 2 mL samples of dissolution medium were withdrawn and replaced with a fresh buffer. Times start from 0-time points for powder dissolution and end after 20 min (average time to dissolve the capsule shell).

[5] = Oral pharmacokinetic (bioavailability) study in rats, non-compartmental analysis; format: in vivo, Wistar rats
Method: The Shimadzu SCL-10A VP system control (Kyoto, Japan) has a mass detector (LCMS2010A) from Shimadzu Kylimatu, Japan. The mobile phase comprised acetonitrile–deionized water–formic acid (70: 30: 0.1%, v/v). Rosuvastatin was utilized as an internal standard. The injection volume was 10 µL; the flow rate was […]; the autosampler temperature was 5 °C; the column temperature was 25 °C; and the column was ACE (C18; 4.6 × […]) with particle size of 5.0 µm.
The samples were prepared for injection into the instrument as follows: Samples (including known/unknown spiked plasma and samples) were obtained from the deep freezer, followed by a period of room-temperature thaw. Later, a plasma pipet was performed on the samples after they were shaken to form a mixture. A total of 270 µL of blank plasma per 300 µL of spiked plasma were pipetted into the labeled test tubes, and 30 µL of serial solutions into blank plasma were added. Then, 50 µL of rosuvastatin (IS) working solutions were added. Then, the samples were vortexed for roughly 10 s. A total of 700 µL of acetonitrile (precipitation solutions) were added and vortexed again for 2.0 min, then centrifugated at 4000 rpm for roughly five min at room temperature. After that, 200 µL from the supernatant was transferred to the HPLC vials inserts. Finally, the vials were capped and transferred into the autosampler racks.
The study protocol was validated and approved by the Institutional Review Board (IRB) of Applied Science University (ASU) (Decision no. 6/2021–2022). The preclinical investigation was conducted at the Animal House of ASU as a combined project. A total of 12 Wistar rats were prepared for this study and divided into two groups, with each group containing 6 rats. The average weight of the animals was 200 g ± 15 g, aged four weeks, and they were all males.
The animals for the experiment were prepared by depriving them of food (for about twelve hours) apart from full access to water, and they were identified by a sign mark on the tail. After the dosing of ALB, samples were retrieved from the rat’s tail. After, the tail was warmed for half a minute via a hot pad before every sampling period. […] The samples were kept in heparinized Eppendorf tubes, centrifugated to obtain the plasma, frozen at −25 °C, and kept until the time of analysis.
The plasma level–time profile of ALB was obtained using Microsoft Excel. Two profiles, F1 in G1 and F2 in G2, were plotted. […] ANOVA was applied to detect significant parameter differences using a […].

[6] = cited from earlier work
[7] = cited from earlier work; remark: listed apart in the source
[8] = male, Wistar, rat, plasma, po, 15 mg/kg

- solubility at 2 days [1]: 2 µM
- solubility at 2 days ([1]; approximate): ~1 µg/mL
- Ks (stability constant) [2]: 500 M⁻¹
- Ks (stability constant) [3]: 1836 M⁻¹
- T30 (amount of ALB released in 30 min) [4]: 18%
- Plasma concentration of ALB at 72 h ([5]; Wistar rats, F1 and F2, LLOQ 15 ng/mL): below the LLOQ
- AUC(0-inf) [5, 8]: 7280 ± 306 ng·h/mL
- Cmax [5, 8]: 240 ± 26.9 ng/mL
- Tmax [5, 8]: 7.33 ± 1.03 h
- AUC(0-t) ([5]; male, Wistar, rat, plasma, po, 15 mg/kg, read-out: AUC0-48 (AUC-48)): 5950 ± 265 ng·h/mL
- k el ([5]; male, Wistar, rat, plasma, po, 15 mg/kg, read-out: Kel (elimination rate constant) (converted)): 1.25e-05 s⁻¹
SMILES: CCc1cc2c(cc1N1CCC(N3CCOCC3)CC1)C(C)(C)c1[nH]c3cc(C#N)ccc3c1C2=O [ALB, Alectinib]
- log partition coefficient (log p) [6]: 5.2
- Oral bioavailability [7]: around 37%
